Measurements reported in US9339509B2, “Methods of use to orally and topically treat acne and other skin conditions by administering a 19-nor containing vitamin D analog with or without a retinoid” (Wisconsin Alumni Research Foundation, priority 2006, dated 2016).
Entries after “also recorded” stand apart in the source; their conditions may differ.

Experiments:
Rhino mouse [1] = assay: Comedolytic effect of topical application to the Rhino mouse (comedone area); assay type: in vivo; details: for response vs control in vivo at 0.217 µmol/kg: dose 217 nmol/kg; for comedone area relative to vehicle-treated group (FIG. 8, 9, 10): 217 nmole/kgBW/day; for response vs control in vivo at 0.069 µmol/kg: dose 69 nmol/kg; for comedone area (FIG. 7, FIG. 10): 69 nmole/kgBW/day; for comedone area relative to vehicle-treated group (FIG. 11): 72 h after final dose
From the text: (§1) Rhino mice were used to topically and orally test the compounds and compositions of the invention. The Rhino mouse is a well-established animal model used to study the comedolytic effects of anti-acne agents including retinoids. (See Boulcier M et al., Experimental Models in Skin Pharmacology, 1990, In Pharmacological Reviews 42:127-15). Mirshahpanah and Maibach, 2007, Cutaneous and Ocular Toxicology 26:195-202). The Rhino mouse model was used to study the therapeutic potential of 2-Methylene-19-nor-20(S)-1α-hydroxy-bishomopregnacalciferol (2MBisP), 19-Nor-26,27-dimethylene-20(S)-2-methylene-1α,25-dihydroxyvitamin D3 (CAGE-3), NEL, 24R-2MD2, Vit-III (17-20E), 2MPregna, 2MP, 20R-2MbisP, 2MTrisP, FF-44, FF-55, HPBS, VD-03 and atRA.
(§2) Animals and dose administration. Rhino mice 6-10 weeks old were dosed via the oral and/or topical route. In the majority of studies, the mice were dosed daily. In one topical study, the efficacy of daily versus intermittent (Monday/Wednesday/Friday) dosing was compared. The mice were weighed three times per week and doses were adjusted weekly based on body weight. The topical formulations were applied to the back of the animal in a maximum volume of 110 μL. The topical formulations were made by mixing the APIs with a topical carrier comprising 70 vol % propylene glycol and 30 vol % ethanol or 30 vol % propylene glycol and 70 vol % ethanol, as indicated. The topical vehicle control was the vehicle carrier solution matched to the formulation containing API and vehicle carrier.
(§3) The oral formulation was made by mixing the APIs with Wesson® soybean oil or NeoBee® oil. The oral dose was delivered to the back of the mouth of each mouse. Mice were sacrificed 4 hours after the final oral dose and 72 hours after the final topical dose. At sacrifice, the dorsal skin was collected for histological studies.
(§4) Comedolytic effect. The extent of the comedolytic effect (i.e., efficacy) was assessed by measuring the average area of the comedones, whereby the smaller the area, the larger the effect. The comedone area was determined by histological analysis of tissue sections based on a method developed in our lab (see FIG. 2). Skin was fixed overnight in 4% paraformaldehyde at 4 deg. C. with gentle agitation and dehydrated the next day into 100% methanol. Samples were embedded in paraffin and a total of nine 10 micron sections 150 microns apart were prepared from each Rhino mouse. Five of the nine sections were digitally imaged (6× magnification) for comedone analysis using Metamorph Imaging Software (trace function). The perimeter of each comedone on the images taken from the 5 sections was then traced using a Wacom Intuos 3 Graphics Tablet interfaced with the software. The number of pixels comprising the area of each individual comedone was obtained and transferred to an Excel spreadsheet, and the mean number of pixels per comedone was obtained for each Rhino mouse. For comedones that were completely healed (area=0) a pixel value approaching 0 (<10) was entered into the spreadsheet. The individual comedone area average for each mouse was then used to calculate the treatment group mean. Results in the figures are expressed in terms of mean±standard error of the mean.
Preparation of topical formulations containing 2MBisP, CAGE-3, 24R-2MD2, VitIII (17-20E), NEL, VD-03, 2MPregna, 2MP, 20R-2MBisP, 2MTrisP, FF-44, FF-55, and HPBS. Separate concentrated ethanolic stocks of 2MBisP, CAGE-3, 24R-2MD2, VitIII (17-20E) and NEL were diluted to a final concentration containing 70 vol % propylene glycol and 30 vol % ethanol or 30 vol % propylene glycol and 70 vol % ethanol as the excipient carrier system. The mixture was thoroughly mixed. The topical dosing formulation delivered the desired dosing amount of drug on a per kilogram body weight basis. A dose ranging from 100-110 μL in volume was administered to the back of the mouse. An average weight of 24 or 30 g/mouse was assumed in dose volume calculations. […]

Rhino mouse [2] = assay: Comedolytic effect of oral administration to the Rhino mouse (comedone area); assay type: in vivo; details: oral daily 24 days
From the text: as §1, §2, §3, §4
Preparation of oral dosing solutions containing 2MBisP, CAGE-3, 24R-2MD2, VitIII (17-20E) and NEL. Separate concentrated stocks of 2MBisP, CAGE-3, 24R-2MD2, VitIII (17-20E) and NEL were obtained in ethanol. The concentration was determined spectrophotometrically using a molar extinction coefficient=42,000 and a λmax=252.7. […] The final dose was delivered in ≦50 μL of oil.
Preparation of oral atRA dosing formulation. A concentrated stock solution containing atRA was prepared in dichloromethane. The atRA concentrated stock solution was diluted into ethanol. The concentration of atRA in that diluted stock solution was determined spectrophotometrically, whereby the molar extinction coefficient=45,200 and λmax=350. The purity of atRA was determined to be >99% by HPLC. […]

[3] = Mus musculus, 504 h, daily topical ca. 3 weeks, 70 vol % ethanol/30 vol % propylene glycol, mean ± SEM, read-out: Comedone Area (% Vehicle)
[4] = daily topical 3 weeks, 70 vol % ethanol/30 vol % propylene glycol
[5] = topical 217 nmole/kgBW daily (total of 22 doses), 70 vol % ethanol/30 vol % propylene glycol
[6] = topical 217 nmole/kgBW intermittently Monday, Wednesday, Friday (total of 10 doses), 70 vol % ethanol/30 vol % propylene glycol

Compound: 2-(3′hydroxypropyl-1′,2′-idene)-19,23,24-trinor-(20S)-1α-hydroxyvitamin D3 [HPBS]
- Comedone Area (% Vehicle) (Rhino mouse [1]; daily topical ca. 3 weeks, 70 vol % ethanol/30 vol % propylene glycol, dose 217 to 122 nmol/kg (changed on day 3 or day 10), mean ± SEM): 74 ± 10 % Vehicle

Compound: C=C1[C@H](O)CC(=C/C=C2\CCCC3(C)C(CC)CCC23)C[C@H]1O (stereo partly drawn) [2MPregna, 2-methylene-19-nor-1α-hydroxy-pregnacalciferol]
- response vs control in vivo at 0.217 µmol/kg (Rhino mouse [1]; [3]): 63 ± 14%
- comedone area relative to vehicle-treated group (FIG. 8, 9, 10) (Rhino mouse [1]; [4]): significant reduction in comedone area

Compound: C=C1[C@H](O)CC(=C/C=C2\CCC[C@@]3(C)C2CCC3[C@@H](C)CC(F)F)C[C@H]1O (stereo partly drawn) [FF-55, 2-methylene-(20S)-23,23-difluoro-1α-hydroxy-19-nor-bishomopregnancalciferol]
- response vs control in vivo at 0.069 µmol/kg (Rhino mouse [1]; [3]): 108 ± 35%
- response vs control in vivo at 0.217 µmol/kg (Rhino mouse [1]; [3]): 53 ± 8%
- comedone area (FIG. 7, FIG. 10) (Rhino mouse [1]; [4]): insignificant effect
- comedone area relative to vehicle-treated group (FIG. 8, 9, 10) (Rhino mouse [1]; [4]): significant reduction in comedone area
- comedone area relative to vehicle-treated group (FIG. 11) (Rhino mouse [1]; [5]): significant reduction in comedone area
- comedone area relative to vehicle-treated group (FIG. 11) (Rhino mouse [1]; [6]): significant reduction in comedone area

Compound: C=C1[C@H](O)CC(=C/C=C2\CCC[C@]3(C)[C@@H]([C@@H](C)CCCC4(O)CCCC4)CC[C@@H]23)C[C@H]1O [CAGE-3, 19-nor-26,27-dimethylene-20(S)-2-methylene-1α,25-dihydroxyvitamin D3]
- comedone area (FIG. 12) (Rhino mouse [2]; 68 pmole/kgBW/day): reduction in the comedone area
- comedone area vs vehicle control (FIG. 3, FIG. 4) (Rhino mouse [1]; topical 3 weeks, 30 vol % ethanol/70 vol % propylene glycol, 0.9 ng/day (ca. 100 pmole/kgBW/day), reduced to 0.45 ng/day on day 10 and 0.22 ng/day on day 19): reduction in the comedone area; also recorded: reduced comedone area

Compound: C=C1[C@H](O)CC(=C/C=C2\CCC[C@]3(C)C([C@H](C)CCC[C@H](C)O)CC[C@@H]23)C[C@H]1O (stereo partly drawn) [NEL, 2-methylene-(20R,25S)-19,26-dinor-1α,25-dihydroxyvitamin D3]
- comedone area (FIG. 14) (Rhino mouse [2]; 7.5 nmole/kgBW/day): no significant reduction in comedone area
- comedone area (FIG. 14) (Rhino mouse [2]; 25 nmole/kgBW/day): no significant reduction in comedone area
- response vs control in vivo at 0.0075 µmol/kg (Rhino mouse [1]; Mus musculus, 504 h, daily topical ca. 3 weeks, 70 vol % ethanol/30 vol % propylene glycol, dose 7.5 nmol/kg, mean ± SEM, read-out: Comedone Area (% Vehicle)): 156 ± 34%
- response vs control in vivo at 0.025 µmol/kg (Rhino mouse [1]; Mus musculus, 504 h, daily topical ca. 3 weeks, 70 vol % ethanol/30 vol % propylene glycol, dose 25 nmol/kg, mean ± SEM, read-out: Comedone Area (% Vehicle)): 145 ± 24%

Compound: C=C1[C@H](O)CC(=C/C=C2\CCC[C@]3(C)C([C@H](C)/C=C/[C@@H](C)C(C)(C)O)CC[C@@H]23)C[C@H]1O (stereo partly drawn) [24R-2MD2, 2-methylene-19-nor-(24R)-1α,25-dihydroxyvitamin D2]
- comedone area (FIG. 13) (Rhino mouse [2]; 2.3 nmole/kgBW/day): no significant reduction in comedone area
- response vs control in vivo at 0.0023 µmol/kg (Rhino mouse [1]; Mus musculus, 504 h, daily topical ca. 3 weeks, 70 vol % ethanol/30 vol % propylene glycol, dose 2.3 nmol/kg, mean ± SEM, read-out: Comedone Area (% Vehicle)): 176 ± 55%

Compound: C=C1[C@H](O)CC(=C/C=C2\CCC[C@@]3(C)C2CCC3[C@H](C)CC(F)F)C[C@H]1O (stereo partly drawn) [FF-44, 2-methylene-(20R)-23,23-difluoro-1α-hydroxy-19-nor-bishomopregnacalciferol]
- response vs control in vivo at 0.069 µmol/kg (Rhino mouse [1]; [3]): 104 ± 20%
- response vs control in vivo at 0.217 µmol/kg (Rhino mouse [1]; [3]): 47 ± 12%
- comedone area (FIG. 7, FIG. 10) (Rhino mouse [1]; [4]): insignificant effect
- comedone area relative to vehicle-treated group (FIG. 8, 9, 10) (Rhino mouse [1]; [4]): significant reduction in comedone area
- comedone area relative to vehicle-treated group (FIG. 11) (Rhino mouse [1]; [5]): significant reduction in comedone area
- comedone area relative to vehicle-treated group (FIG. 11) (Rhino mouse [1]; [6]): significant reduction in comedone area

Compound: C=C1[C@H](O)CC(=C/C=C2\CCCC3(C)C2CCC3C(C)C)C[C@H]1O (stereo partly drawn) [2MP, 1α-hydroxy-2-methylene-19-nor-homopregnacalciferol]
- response vs control in vivo at 0.217 µmol/kg (Rhino mouse [1]; [3]): 92 ± 20%
- comedone area relative to vehicle-treated group (FIG. 8, 9, 10) (Rhino mouse [1]; [4]): smaller reduction in comedone area

Compound: C=C1[C@H](O)CC(=C/C=C2\CCC[C@@H]3C([C@@H](C)CCCC(C)(C)O)CC[C@@H]23)C[C@H]1O (stereo partly drawn) [VD-03, 2-methylene-18,19-dinor-(20S)-1α,25-dihydroxyvitamin D3]
- response vs control in vivo at 0.00062 µmol/kg (Rhino mouse [1]; Mus musculus, 504 h, daily topical ca. 3 weeks, 70 vol % ethanol/30 vol % propylene glycol, dose 0.62 nmol/kg, mean ± SEM, read-out: Comedone Area (% Vehicle)): 90 ± 14%

Compound: C=C1[C@H](O)CC(=C/C=C2\CCC[C@@]3(C)C2CCC3[C@H](C)CC)C[C@H]1O (stereo partly drawn) [20R-2MBisP, (20R)-1α-hydroxy-2-methylene-19-nor-bishomopregnacalciferol]
- response vs control in vivo at 0.217 µmol/kg (Rhino mouse [1]; [3]): 136 ± 17%
- response vs control in vivo at 0.694 µmol/kg (Rhino mouse [1]; Mus musculus, 504 h, daily topical ca. 3 weeks, 70 vol % ethanol/30 vol % propylene glycol, dose 694 nmol/kg, mean ± SEM, read-out: Comedone Area (% Vehicle)): 45 ± 6%
- response vs control in vivo at 2.187 µmol/kg (Rhino mouse [1]; Mus musculus, 504 h, daily topical ca. 3 weeks, 70 vol % ethanol/30 vol % propylene glycol, dose 2187 nmol/kg, mean ± SEM, read-out: Comedone Area (% Vehicle)): 17 ± 3%
- comedone area relative to vehicle-treated group (FIG. 8, 9, 10) (Rhino mouse [1]; [4]): insignificant effect
- comedone area relative to vehicle-treated group (FIG. 8) (Rhino mouse [1]; daily topical 3 weeks, 70 vol % ethanol/30 vol % propylene glycol, 694 nmole/kgBW/day): significant reduction

Compound: C=C1[C@H](O)CC(=C/C=C2\CCC[C@@]3(C)C2CCC3[C@@H](C)CCC)C[C@H]1O (stereo partly drawn) [2MTrisP, 2-methylene-(20S)-19-nor-1α-hydroxy-trishomopregnacalciferol]
- response vs control in vivo at 0.217 µmol/kg (Rhino mouse [1]; [3]): 66 ± 9%
- comedone area relative to vehicle-treated group (FIG. 8, 9, 10) (Rhino mouse [1]; [4]): significant reduction in comedone area

Compound: C=C1/C(=C\C=C2/CCC[C@]3(C)[C@@H]([C@H](C)CCCC(C)(C)O)CC[C@@H]23)C[C@@H](O)C[C@@H]1O [1,25(OH)2D3, 1,25-DIHYDROXYVITAMIN D3, reference compound]
- response vs control in vivo at 0.006 µmol/kg (Rhino mouse [1]; Mus musculus, 504 h, daily topical ca. 3 weeks, 70 vol % ethanol/30 vol % propylene glycol, dose 6.0 nmol/kg, mean ± SEM, read-out: Comedone Area (% Vehicle)): 187 ± 30%
